PMC12699035, “Exploring market-approved azoles as potential breast cancer therapeutics targeting the VEGFR-2 biotarget” (Scientific Reports, 2025)

Tests used:
[1] = test system: Solid Ehrlich Carcinoma (SEC); test: In vivo anti-tumor activity in solid Ehrlich carcinoma (SEC)-bearing mice (tumor mass, volume, TIR%, hematology, histopathology)
Experimental: All experimental protocols were approved by the Research Ethics Committee and Institutional Animal Care and Use Committee, Faculty of Science, Suez Canal University with the ethical code (SCU-Sci-REC439/2025), and all methods were carried out according to the European Union guidelines and in accordance with ARRIVE guidelines. All animals were anesthetized using a combination of Xylazine 10 mg/kg- Ketamine 100 mg/kg of body weight, respectively, prior sacrifice via cervical decapitation.
In all graphs, treatments were administrated intraperitoneal (IP) with 6 mg/Kg B.Wt. for two weeks, day after day.
(§1) SIT, FLU and TNZ were tested using the five dose sigmoidal curves to determine the IC50 values. They were tested for the VEGFR2 inhibition using VEGFR2 Kinase Inhibition Assay Kit Catalog # 40325 BPS Bioscience, San Diego, CA. […] At the end of these experiment, anti-tumor potentiality was recorded using tumor weight (mg), tumor volume (mm^3), and the tumor inhibition ratio (TIR%). Hematological parameters of Hemoglobin (Hb, g/dL), RBC’s count (10^6/μL), and WBC’s count (10^3/μL) were investigated, along with histopathological and immunohistochemical staining of the VEGR2 protein.
Adult female Swiss albino mice purchased from Faculty of Pharmacy, Suez Canal University, Ismailia, Egypt, with an average body weight of (18-23) g was used. Mice were housed under constant conditions of 12 h light/dark cycle in a […], with free access to standard laboratory mice food and water. All procedures related to care and maintenance of the animals were performed according to the international guiding principles for animal research and approved by the Faculty of Pharmacy, Suez Canal University bioethics and animal ethics committee.
Solid Ehrlich carcinoma (SEC) was got from the National Cancer Institute (Cairo University, Egypt). The tumor cell line proliferated in mice through serial intraperitoneal (I.P.) transplantation of a volume of 0.2 mL physiological saline containing 1×10^6 viable cells for 24 h. SEC cells were collected 7 days after I.P. implantation. The harvested cells were diluted with saline to obtain a concentration of 5×10^6 viable SEC cells/mL. A volume of 0.2 mL saline contains 1×10^6 SEC cells that were I.P. implanted into each normal mouse. SEC cells (1×10^6 tumor cells/mouse) were implanted subcutaneously into the right thigh of the hind limb.
The experimental animals were randomly divided into four groups. Group 1 served as the normal saline control. Group 2 served as the SEC control (1×10^6 cells/mouse). Group 3 served as the ITR-treated group (6 mg/kg B.Wt., I.P.). […] Body weight and survival were recorded daily until the 24th day in both treated and control groups. At the end of the experiment, anesthetized animals were then sacrificed for evaluation of the antitumor activity and histopathological examination.
It includes tumor volume, weight, and tumor inhibition ratio (TIR%). Time interval measurements of tumor volume using a digital Vernier caliper (Tricle Brand, Shanghai, China). Measure tumor length and width using a clipper and then calculate tumor volume using formulations V = (L x W x W)/2, where V is tumor volume, W is tumor width, L is tumor length. While TIR% was calculated according to the following equation Tumor volume Control-Tumor volume (treated)Tumor volume (control)x 100.
Specimens of liver-sacrificed mice were fixed in 10% saline formalin. The fixed liver specimens were Dehydrated in ascending series of ethyl alcohol and embedded in paraffin.

VEGFR-2 = target: T1, VEGFR-2 (Homo sapiens, UniProt P35968); test: VEGFR-2 kinase inhibition, luminescent VEGFR2 (KDR) kinase assay kit (BPS Bioscience # 40325); format: biochemical
T1 construct: purchased BPS Bioscience 40325
Experimental: Functionally, this pathway operates in autocrine and intracrine modes to promote cell proliferation, survival, and resistance to apoptosis through downstream effectors such as PI3K/AKT and p38 MAPK.
as §1, with “values.” for “values. They were tested for the VEGFR2 inhibition using VEGFR2 Kinase Inhibition Assay Kit Catalog # 40325 BPS Bioscience, San Diego, CA.”
Compounds Itraconazole. […] [12].

T1 sequence (P35968 20-1356): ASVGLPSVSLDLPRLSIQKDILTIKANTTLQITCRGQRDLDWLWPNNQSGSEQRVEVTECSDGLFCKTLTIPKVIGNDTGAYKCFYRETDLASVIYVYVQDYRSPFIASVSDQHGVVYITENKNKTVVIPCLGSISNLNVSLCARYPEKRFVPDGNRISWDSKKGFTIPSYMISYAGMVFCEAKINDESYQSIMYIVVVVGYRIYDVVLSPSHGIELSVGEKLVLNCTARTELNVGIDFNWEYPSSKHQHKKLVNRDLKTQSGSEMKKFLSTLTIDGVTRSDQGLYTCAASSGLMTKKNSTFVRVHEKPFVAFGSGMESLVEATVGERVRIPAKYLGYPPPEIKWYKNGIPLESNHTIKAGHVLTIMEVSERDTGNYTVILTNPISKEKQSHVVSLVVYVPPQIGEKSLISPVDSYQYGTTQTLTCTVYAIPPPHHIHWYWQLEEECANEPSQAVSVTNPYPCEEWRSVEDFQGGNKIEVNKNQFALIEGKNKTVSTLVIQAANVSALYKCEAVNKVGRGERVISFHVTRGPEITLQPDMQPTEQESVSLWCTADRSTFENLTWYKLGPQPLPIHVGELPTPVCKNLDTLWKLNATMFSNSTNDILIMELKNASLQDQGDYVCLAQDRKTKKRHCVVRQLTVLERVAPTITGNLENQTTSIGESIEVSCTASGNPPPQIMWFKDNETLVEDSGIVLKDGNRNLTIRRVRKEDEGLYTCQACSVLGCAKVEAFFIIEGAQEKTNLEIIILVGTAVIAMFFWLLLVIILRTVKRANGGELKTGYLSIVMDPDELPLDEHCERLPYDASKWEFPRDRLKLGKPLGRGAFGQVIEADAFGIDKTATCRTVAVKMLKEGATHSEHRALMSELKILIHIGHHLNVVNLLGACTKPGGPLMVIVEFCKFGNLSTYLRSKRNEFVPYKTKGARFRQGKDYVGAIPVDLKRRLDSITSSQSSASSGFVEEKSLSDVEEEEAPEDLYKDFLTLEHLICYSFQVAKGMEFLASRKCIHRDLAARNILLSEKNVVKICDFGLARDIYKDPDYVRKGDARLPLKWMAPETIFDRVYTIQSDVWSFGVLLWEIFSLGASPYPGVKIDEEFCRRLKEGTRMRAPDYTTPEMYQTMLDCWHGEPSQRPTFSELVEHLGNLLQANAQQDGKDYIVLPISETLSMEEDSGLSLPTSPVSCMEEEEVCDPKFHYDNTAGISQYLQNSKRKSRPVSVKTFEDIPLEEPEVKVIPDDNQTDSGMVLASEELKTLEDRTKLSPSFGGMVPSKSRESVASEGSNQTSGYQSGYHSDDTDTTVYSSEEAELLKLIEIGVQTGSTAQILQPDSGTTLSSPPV

CCC(C)n1ncn(-c2ccc(N3CCN(c4ccc(OCC5COC(Cn6cncn6)(c6ccc(Cl)cc6Cl)O5)cc4)CC3)cc2)c1=O (stereo not drawn) [Itraconazole, itraconazole]
solid tumor mass ([1]; 6 mg/Kg B.Wt. IP, two weeks, day after day, SEC control 469 mg): 237 mg | tumor volume ([1]; 6 mg/Kg B.Wt. IP, two weeks, day after day, SEC control 420 mm^3): 221 mm^3 | Tumor inhibition ratio (TIR%) ([1]; 6 mg/Kg B.Wt. IP, two weeks, day after day, TIR% = C − T/C × 100): 47.4% | WBC's count ([1]; 6 mg/Kg IP, normal 5, SEC control 9.2): 6.7 10^3/µL | RBC's count ([1]; 6 mg/Kg IP, normal 6.9, SEC control 3.1): 5.1 10^6/µL | Hemoglobin level ([1]; 6 mg/Kg IP, normal 11.6, SEC control 4.6): 6.8 g/dL | Tumor cell density (histopathology of SEC mass) ([1]; isolated tumor mass, SEC control 2.2 cm^2): 1.2 cm^2 | VEGFR-2 enzyme inhibition LogIC50 (Fig. 3) (VEGFR-2; dose-response curve fit, unit not given): 1.515 | IC50 (VEGFR-2; enzyme inhibition, dose-response, non-linear regression, read-out: VEGFR-2 inhibition IC50): 32.7 µM
